The target in this experiment is T1, TRAF1.
T1 construct: TRAF1 protein amine-coupled to carboxylated SPR chip
Nature of the experiment: surface plasmon resonance, TRAF1 immobilized. The format is binding. Particulars: PBST running buffer; analyte 0-500 μM; Fc2-Fc1 double-referenced.

`N[C@@H](CCS)C(=O)O` [L-homocysteine] yielded a Kd of 246 µM.
